Assay results reported in ChEMBL document CHEMBL5370637, “Receptor Interacting Ser/Thr-Protein Kinase 2 as a New Therapeutic Target” (J Med Chem, 2023).
Each block holds one molecule with its values, some of them ahead of it.

What was measured:
[1] = target: T1, Receptor-interacting serine/threonine-protein kinase 2 (Homo sapiens, UniProt O43353)
[2] = target: T1, Receptor-interacting serine/threonine-protein kinase 2; experiment: Inhibition of recombinant RIPK2 (unknown origin) expressed in insect cells using RBER-CHKtide as substrate assessed as inhibition of tyrosine autophosphorylation preincubated with compound for 15 mins followed by substrate addition and measured after 30 mins; set-up: species or system Insect cell
[3] = target: T1, Receptor-interacting serine/threonine-protein kinase 2; experiment: Inhibition of human RIPK2 assessed as inhibition of autophosphorylation incubated for 45 to 60 mins in presence of 32P-gamma-ATP by immunoprecipitation analysis
[4] = target: T1, Receptor-interacting serine/threonine-protein kinase 2; experiment: Inhibition of recombinant RIPK2 (unknown origin) using CRRKSLVGTPYWMAPE peptide as substrate assessed as inhibition of autophosphorylation incubated for 90 mins in presence of ATP by Transcreener ADP FP assay; set-up: species or system Insect cell
[5] = Inhibition of RIPK (unknown origin) by KINOMEscan assay; set-up: species or system Homo sapiens
MAP kinase p38 = MAP kinase p38 (Homo sapiens, UniProt O15264+Q15759+Q16539+P53778); experiment: Inhibition of p38 (unknown origin) by KINOMEscan assay; format: protein assay
[6] = target: Epidermal growth factor receptor (Homo sapiens, UniProt P00533); experiment: Inhibition of EGFR (unknown origin) by KINOMEscan assay
[7] = target: T1, Receptor-interacting serine/threonine-protein kinase 2; experiment: Inhibition of RIPK2 (unknown origin)
[8] = Induction of apoptosis in human GBM1 cells incubated for 48 hrs by immunofluorescent analysis; format: functional, cell-based; details: GBM1, 48 h

T1 sequence (O43353 whole entry): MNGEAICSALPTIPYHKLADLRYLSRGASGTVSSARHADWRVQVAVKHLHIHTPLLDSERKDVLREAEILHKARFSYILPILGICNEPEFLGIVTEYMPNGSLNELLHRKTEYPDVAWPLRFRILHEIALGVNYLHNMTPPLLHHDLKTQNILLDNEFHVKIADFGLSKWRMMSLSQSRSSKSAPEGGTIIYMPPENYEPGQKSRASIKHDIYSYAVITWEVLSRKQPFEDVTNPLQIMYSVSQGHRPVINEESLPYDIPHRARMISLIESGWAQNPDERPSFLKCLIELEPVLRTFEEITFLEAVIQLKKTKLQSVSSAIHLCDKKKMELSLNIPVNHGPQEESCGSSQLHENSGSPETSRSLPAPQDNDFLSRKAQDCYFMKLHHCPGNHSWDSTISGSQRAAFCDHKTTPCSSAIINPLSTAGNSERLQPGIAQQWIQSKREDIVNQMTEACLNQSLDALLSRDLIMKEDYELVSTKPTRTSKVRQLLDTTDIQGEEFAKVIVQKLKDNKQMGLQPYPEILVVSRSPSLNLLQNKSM
Epidermal growth factor receptor, sequence (P00533 whole entry): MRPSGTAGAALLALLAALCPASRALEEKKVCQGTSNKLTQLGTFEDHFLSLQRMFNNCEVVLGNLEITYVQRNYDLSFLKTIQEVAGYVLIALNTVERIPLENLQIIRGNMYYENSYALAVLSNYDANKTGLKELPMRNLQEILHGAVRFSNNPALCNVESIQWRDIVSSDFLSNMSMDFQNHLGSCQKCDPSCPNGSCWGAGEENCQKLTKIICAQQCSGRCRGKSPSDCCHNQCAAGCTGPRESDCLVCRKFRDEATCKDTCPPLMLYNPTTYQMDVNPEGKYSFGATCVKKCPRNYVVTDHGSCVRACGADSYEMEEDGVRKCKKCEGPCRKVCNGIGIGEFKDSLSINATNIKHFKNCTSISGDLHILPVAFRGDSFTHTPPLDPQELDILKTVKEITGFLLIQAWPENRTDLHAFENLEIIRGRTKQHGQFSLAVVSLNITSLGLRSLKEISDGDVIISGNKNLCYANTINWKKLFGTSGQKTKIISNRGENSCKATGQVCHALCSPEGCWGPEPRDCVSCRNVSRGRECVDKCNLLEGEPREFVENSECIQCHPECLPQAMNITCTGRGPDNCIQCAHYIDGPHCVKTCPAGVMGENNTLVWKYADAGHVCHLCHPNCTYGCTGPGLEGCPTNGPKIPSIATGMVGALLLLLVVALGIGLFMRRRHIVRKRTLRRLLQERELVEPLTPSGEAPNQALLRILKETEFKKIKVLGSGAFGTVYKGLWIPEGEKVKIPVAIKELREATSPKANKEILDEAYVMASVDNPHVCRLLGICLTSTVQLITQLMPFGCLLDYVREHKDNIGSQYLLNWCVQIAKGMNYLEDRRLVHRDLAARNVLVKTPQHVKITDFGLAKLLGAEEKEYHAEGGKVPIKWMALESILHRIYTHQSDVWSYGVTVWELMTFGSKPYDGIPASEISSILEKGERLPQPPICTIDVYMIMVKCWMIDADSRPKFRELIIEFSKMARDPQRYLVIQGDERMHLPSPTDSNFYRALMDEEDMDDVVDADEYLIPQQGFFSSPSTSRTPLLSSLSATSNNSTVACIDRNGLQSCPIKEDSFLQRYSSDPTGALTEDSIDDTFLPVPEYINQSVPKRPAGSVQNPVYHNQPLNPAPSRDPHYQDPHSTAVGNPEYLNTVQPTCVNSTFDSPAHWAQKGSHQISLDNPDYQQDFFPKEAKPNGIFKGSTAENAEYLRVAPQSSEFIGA

- IC50 [1]: 0.7 µM
SMILES: Nc1nccc(-c2c(-c3ccc(F)cc3)ncn2C2CCNCC2)n1 [SB-220025]

- IC50 [2]: 0.0141 µM
SMILES: c1cc2cc(n1)NCCOCCNc1ccn3ncc-2c3n1

- IC50 [3]: 0.01 µM
SMILES: Cc1ccc(C(=O)Nc2cccc(-c3nccn3C)c2)cc1NC(=O)c1ccccc1

- IC50 [4]: 0.134 µM
- IC50 [5]: > 10 µM
- IC50 (MAP kinase p38): > 10 µM
- IC50 [6]: > 10 µM
SMILES: Cc1ccc(-c2nn(C(C)(C)CNC(=O)c3ccncc3)c3ncnc(N)c23)cc1

- IC50 [7]: 8 µM
SMILES: N=C(N)NCCC[C@@H]1NC(=O)/C(=C/c2c[nH]c3cc(Br)ccc23)NC1=O [BARETTIN]

- IC50 [2]: 0.0053 µM
SMILES: Clc1cc2cc(c1)-c1cnn3ccc(nc13)NCCOCCO2

- IC50 [1]: 0.07 µM
SMILES: O=[N+]([O-])c1ccc(-c2nc(-c3ccncc3)c(-c3ccc(F)cc3)[nH]2)cc1 [PD-169316]

SMILES: Cc1n(Cc2ccc(F)cc2)c2c([n+]1Cc1ccccc1)C(=O)c1ccccc1C2=O
- EC50 [8]: 0.068 µM
